From patent US8969419B2, “Animal feed compositions and feeding methods” (priority 2009, dated 2015)

Test system: ruminal microbiota
Test: Analysis of ruminal samples from cattle fed hop beta acids or Rumensin
Assay type: in vivo
Conditions: Rumensin 300 mg/day; for Lactate Concentration, % differ from Control / Isobutyrate Concentration, % differ from Control / Isovalerate Concentration, % differ from Control / Valerate Concentration, % differ from Control / Butyrate Concentration, % differ from Control / Propionate Concentration, % differ from Control / Acetate Concentration, % differ from Control / Total VFA Concentration, % differ from Control: rumen fluid; for Lactate Concentration, % differ from Control / Isobutyrate Concentration, % differ from Control / Isovalerate Concentration, % differ from Control / Valerate Concentration, % differ from Control / Butyrate Concentration, % differ from Control / Propionate Concentration, % differ from Control / Acetate Concentration, % differ from Control / Total VFA Concentration, % differ from Control / Ruminal Ammonia Concentration, % differ from Control / Ruminal Acetate:Propionate Ratio, % differ from Control: β-acids averaged over five levels; for Ruminal pH, % differ from Control: β-acids averaged over five levels (10-300 mg/day)
Experimental: Background: Cattle were fed concentrate-based diets and were administered beta acids of hops (0, 10, 80, 160, 240, or 300 mg/day) or Rumensin (300 mg/day) to determine effects of the additives on ruminal microbiota. Rumen samples were periodically taken and pH, acetate, propionate, butyrate isobutyrate, valerate isovalerate, and total volatile fatty acid (VFA) concentrations were measured. Materials and Methods: A 10% beta acids solution (standard aqueous alkaline solution of beta acids) was subjected to dilution. Dilutions of the 10% beta acids solution were prepared (with water and KOH additions) such that solutions were prepared that contained the proper amount of beta acids (per ml) to provide proper cattle dose in 30 ml total volume (e.g. a solution was prepared that had 10 mg/30 ml (pH of 10.5) and was used to treat the 10 mg/steer/day group; another solution was prepared that had 80 mg/30 ml (pH 10.5) and was used to treat the 80 mg/steer/day group). Each animal was treated with it appropriate 30 ml of solution, once per day. A subset of ruminal fluid samples representing each of the seven treatment groups (control, five levels of beta acids and Rumensin). The beta acid levels were 10, 80 and 160, 240 and 300 mg/animal daily. The rumen fluid sampling was performed at prescribed intervals following feeding. Rumen samples were analyzed using standard accepted methodologies, and concentrations of parameters of interest determined. Results: Described in Tables I through XI are the averaged results from the 24 hour feeding period (i.e. average of analysis results for each parameter, complied from samples taken and analyzed over the course of the 24 hour feeding period) for: the control animals, the animals receiving beta acids treatments (average value at all five levels), and Rumensin treated animals. The Tables provide the maximum, minimum and average values observed. The beta acids (β-acids) and Rumensin values are reported as a percentage of the control. Positive percentage values mean that the treatment (beta acids or Rumensin) exceeded the control by the specified amount (negative values less than control by specified amount.

CCC1(C2OC(C3OC(O)(CO)C(C)CC3C)CC2C)CCC(C2(C)CCC3(CC(O)C(C)C(C(C)C(OC)C(C)C(=O)O)O3)O2)O1 (stereo not drawn) [Rumensin, 4-[2-[5-ethyl-5-[5-[6-hydroxy-6-(hydroxymethyl)-3,5-dimethyl-oxan-2-yl]-3-methyl-oxolan-2-yl]oxolan-2-yl]-9-hydroxy-2,8-dimethyl-1,6-dioxaspiro[4.5]dec-7-yl]-3-methoxy-2-methyl-pentanoic acid]
Lactate Concentration, % differ from Control (Ave over 24 hrs of feeding, control 0.6 mM): 10.2%
Isobutyrate Concentration, % differ from Control (Ave over 24 hrs of feeding, control 0.79 mM): 6.84%
Isovalerate Concentration, % differ from Control (Ave over 24 hrs of feeding, control 1.25 mM): 33.4%
Valerate Concentration, % differ from Control (Ave over 24 hrs of feeding, control 3.06 mM): 31.7%
Butyrate Concentration, % differ from Control (Ave over 24 hrs of feeding, control 9.3 mM): 0.6%
Propionate Concentration, % differ from Control (Ave over 24 hrs of feeding, control 29 mM): 27.9%
Acetate Concentration, % differ from Control (Ave over 24 hrs of feeding, control 38 mM): 9%
Total VFA Concentration, % differ from Control (Ave over 24 hrs of feeding, control 82 mM): 14.9%
Ruminal Ammonia Concentration, % differ from Control (Ave over 24 hrs of feeding, control 3.4 mM): −54.1%
Ruminal Acetate:Propionate Ratio, % differ from Control (Ave over 24 hrs of feeding, control A:P ratio 1.50): −20.4%
Ruminal pH, % differ from Control (Ave value over 24 hrs of feeding, control pH 5.69): −4.45%
Isobutyrate Concentration, % differ from Control (Max over 24 hrs of feeding, control 1.00 mM): 5.00%
Isovalerate Concentration, % differ from Control (Max over 24 hrs of feeding, control 1.81 mM): 26.0%
Lactate Concentration, % differ from Control (Max over 24 hrs of feeding, control 3.0 mM): 66.7%
Valerate Concentration, % differ from Control (Max over 24 hrs of feeding, control 3.80 mM): 39.5%
Butyrate Concentration, % differ from Control (Max over 24 hrs of feeding, control 12.6 mM): −8.7%
Propionate Concentration, % differ from Control (Max over 24 hrs of feeding, control 40 mM): 12.5%
Acetate Concentration, % differ from Control (Max over 24 hrs of feeding, control 49 mM): −2%
Total VFA Concentration, % differ from Control (Max over 24 hrs of feeding, control 107 mM): 0.9%
Ruminal Ammonia Concentration, % differ from Control (Max over 24 hrs of feeding, control 7.2 mM): −41.7%
Ruminal Acetate:Propionate Ratio, % differ from Control (Max over 24 hrs of feeding, control A:P ratio 1.73): 4.0%
Ruminal pH, % differ from Control (Max value over 24 hrs of feeding, control pH 6.60): −5.45%
Lactate Concentration, % differ from Control (Min over 24 hrs of feeding, control 0.2 mM): 0.0%
Isobutyrate Concentration, % differ from Control (Min over 24 hrs of feeding, control 0.57 mM): 17.54%
Isovalerate Concentration, % differ from Control (Min over 24 hrs of feeding, control 0.88 mM): 50.0%
Valerate Concentration, % differ from Control (Min over 24 hrs of feeding, control 1.9 mM): 36.8%
Butyrate Concentration, % differ from Control (Min over 24 hrs of feeding, control 6.6 mM): −75.8%
Propionate Concentration, % differ from Control (Min over 24 hrs of feeding, control 18 mM): 22.2%
Acetate Concentration, % differ from Control (Min over 24 hrs of feeding, control 28 mM): 11%
Total VFA Concentration, % differ from Control (Min over 24 hrs of feeding, control 57 mM): 14.0%
Ruminal Ammonia Concentration, % differ from Control (Min over 24 hrs of feeding, control 0.7 mM): −54.3%
Ruminal Acetate:Propionate Ratio, % differ from Control (Min over 24 hrs of feeding, control A:P ratio 1.30): −25.4%
Ruminal pH, % differ from Control (Min value over 24 hrs of feeding, control pH 5.18): −2.70%
